Assay results taken from patent US11530186B2, “Inhibitors for the β-catenin / T-cell factor protein-protein interaction” (H. LEE MOFFITT CANCER CENTER AND RESEARCH INSTITUTE, INC., priority 2018, dated 2022).
Where two headings read alike, the source gives them in different places.

Target: T1, β-catenin/Tcf protein-protein interaction (Homo sapiens, UniProt P35222)
T1 construct: Wild-type β-catenin (residues 138-781) were cloned into a pET-28b vector; 6×histidine (C); made in house; host or cells: E. coli BL21 DE3
T1 sequence (P35222 138-781): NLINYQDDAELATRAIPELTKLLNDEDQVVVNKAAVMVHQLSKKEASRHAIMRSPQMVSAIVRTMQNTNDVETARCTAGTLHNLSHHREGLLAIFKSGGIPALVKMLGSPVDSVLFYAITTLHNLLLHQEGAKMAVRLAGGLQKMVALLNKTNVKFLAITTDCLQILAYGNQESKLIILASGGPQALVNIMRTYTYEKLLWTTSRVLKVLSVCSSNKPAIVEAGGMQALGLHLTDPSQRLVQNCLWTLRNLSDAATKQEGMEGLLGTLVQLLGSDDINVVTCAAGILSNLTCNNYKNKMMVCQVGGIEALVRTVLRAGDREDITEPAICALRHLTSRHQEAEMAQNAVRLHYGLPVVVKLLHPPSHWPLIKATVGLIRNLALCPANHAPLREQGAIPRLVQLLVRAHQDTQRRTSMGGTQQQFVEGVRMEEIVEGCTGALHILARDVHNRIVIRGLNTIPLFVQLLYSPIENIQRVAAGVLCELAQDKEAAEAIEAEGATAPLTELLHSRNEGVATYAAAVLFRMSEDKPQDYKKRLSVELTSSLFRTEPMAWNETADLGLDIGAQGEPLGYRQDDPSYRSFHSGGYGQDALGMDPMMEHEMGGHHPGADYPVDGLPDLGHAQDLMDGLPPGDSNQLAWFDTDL
Assay: FP competitive inhibition assay
Format: binding
Outline: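 His-tagged human β-catenin (residues 138-781, E. coli-expressed) at 10 nM with 2.5 nM fluorescein-labeled Tcf4 (7-51) in PBS-type buffer with bovine γ-globulin and 0.01% Triton X-100. Compounds added, 1.5 h at 4 °C, 1% DMSO, before fluorescence polarization read. IC50 by nonlinear fit; Ki derived from IC50.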

Compound: O=C(O)c1ccc2c(c1)c(CCc1ccc(Cl)cc1)c(CCc1nc3ccccc3s1)n2CCc1nn[nH]n1 [Compound 27, 1-(2-(2H-tetrazol-5-yl)ethyl)-2-(2-(benzo[d]thiazol-2-yl)ethyl)-3-(4-chlorophenethyl)-1H-indole-5-carboxylic acid]
- Ki (Assay 1, mean ± SD (n = 3), read-out: Ki ± SD, Assay 1): 3.3 ± 0.64 µM
- Ki (Assay 2, mean ± SD (n = 3), read-out: Ki ± SD, Assay 2): 1.3 ± 0.38 µM
- Ki (Assay 3, mean ± SD (n = 3), read-out: Ki ± SD, Assay 3): 5.6 ± 1.8 µM
